# Measured values as given in patent US11236086B2, “Substituted pyrrolopyridines as inhibitors of activin receptor-like kinase” (BLUEPRINT MEDICINES CORPORATION, priority 2017, dated 2022).
# What was measured:
# [1] = biological target: T1, ALK2R206H (mutant ALK2, N-terminally tagged with GST) (Homo sapiens, UniProt Q04771, R206H); test: ALK binding assay (LANTHASCREEN TR-FRET competitive binding, displacement of Kinase Tracer 178); conditions: read-out: Binding Assay (IC50 class)
# T1 construct: purchased Carna Bioscience or ThermoFisher 09-148 or PV6232
# T1 sequence (Q04771 21-509 R206H): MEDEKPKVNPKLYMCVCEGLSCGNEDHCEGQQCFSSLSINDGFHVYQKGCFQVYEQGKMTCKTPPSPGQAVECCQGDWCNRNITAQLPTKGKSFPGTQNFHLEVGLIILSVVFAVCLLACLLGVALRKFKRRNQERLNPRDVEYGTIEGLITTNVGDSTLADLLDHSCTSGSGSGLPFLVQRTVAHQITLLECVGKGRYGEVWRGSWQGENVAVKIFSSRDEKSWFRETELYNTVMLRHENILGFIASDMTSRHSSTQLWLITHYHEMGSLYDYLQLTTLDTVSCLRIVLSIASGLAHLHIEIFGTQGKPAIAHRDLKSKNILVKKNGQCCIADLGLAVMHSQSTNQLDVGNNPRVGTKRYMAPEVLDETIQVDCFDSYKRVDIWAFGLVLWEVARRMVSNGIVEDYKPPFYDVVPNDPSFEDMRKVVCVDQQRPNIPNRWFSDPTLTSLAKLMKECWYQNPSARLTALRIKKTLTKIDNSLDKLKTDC
# Outline: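 Competitive displacement of Kinase Tracer 178 (50 nM) from N-terminally GST-tagged mutant ALK2 R206H (2-5 nM) by compound, detected by TR-FRET with Eu-anti-GST antibody (4-10 nM). 30 min room temperature incubation, 1% DMSO final; normalized signal fitted to 4-parameter log dose response for IC50.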
# human ALK2 R206H = biological target: T2, human ALK2 R206H (Homo sapiens, UniProt Q04771, R206H); test: Cell-based ALK2-R206H cell activity assay (Smad1-Ser463/Ser465 phosphorylation by AlphaLISA in HEK293-ALK2-R206H cells); conditions: phospho-Smad1 AlphaLISA, read-out: Cell Line (Cell Assay, IC50 class)
# T2 construct: expressed in transfected cells; host or cells: HEK293 (ATCC CRL1573), lentivirus transduction, blasticidin selection
# T2 sequence (Q04771 21-509 R206H): T1 sequence (Q04771 21-509 R206H)
# Outline: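 IC50 comes from a 10-point curve, scaled between DMSO and 1 μM LDN193189 controls, of lysate phospho-Smad1 (Ser463/465) measured by AlphaLISA. Compounds (top 10 μM or 1 μM, 3-fold steps, duplicates) were given 2-3 h to serum-starved HEK293 cells that stably express FLAG-tagged human ALK2 R206H.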
Structure (SMILES),IC50 [1],IC50 (human ALK2 R206H)
O=C(OC1CC1)N1CCN(c2ccnc3[nH]c(-c4nc5c(s4)COCC5)cc23)CC1 [Compound 311],≤ 10 nM,≤ 100 nM
CCS(=O)(=O)c1ccc(-c2cc3c(N4CCN(C(=O)C5CC5)CC4)ccnc3[nH]2)cc1 [Compound 362],≤ 10 nM,≤ 100 nM
Cn1cc(-c2cc3c(N4CCN(C(=O)OC5COC5)CC4)ccnc3[nH]2)c(F)n1 [Compound 179],≤ 10 nM,100 to 500 nM
O=C(OC1COC1)N1CCN(c2ccnc3[nH]c(-c4ccc([C@@]5(O)CCOC5)cc4)cc23)CC1 [Compound 428],≤ 10 nM,≤ 100 nM
Cc1nc(-c2[nH]c3nccc(N4CCN(C(=O)O[C@H]5C[C@H](F)C5)CC4)c3c2C#N)cs1 [Compound 365],≤ 10 nM,≤ 100 nM
CC(C)(C)c1csc(-c2cc3c(N4CCN(C(=O)OC5COC5)CC4)ccnc3[nH]2)n1 [Compound 372],≤ 10 nM,≤ 100 nM
Cn1cc(-c2[nH]c3nccc(N4CCN(C(=O)OC5CCC5)CC4)c3c2Cl)cn1 [Compound 255],≤ 10 nM,≤ 100 nM
CCOC(=O)N1CCN(c2ccnc3[nH]c(-c4ncc(OC)cc4C#N)cc23)CC1 [Compound 204],≤ 10 nM,100 to 500 nM
CCOC(=O)N1CCN(c2ccnc3[nH]c(-c4ccc(C#N)cc4)cc23)CC1 [Compound 53],≤ 10 nM,≤ 100 nM
Cn1cnc(-c2[nH]c3nccc(N4CCN(C(=O)OC5CC5)CC4)c3c2C#N)c1 [Compound 130],≤ 10 nM,≤ 100 nM
O=C(C1CC1)N1CCN(c2ccnc3[nH]c(-c4ccc(N5CCN(C6COC6)CC5)cc4)cc23)CC1 [Compound 452],≤ 10 nM,≤ 100 nM
Cn1cc(-c2cc3c(N4CCN(C(=O)[C@@H]5C[C@H]5F)CC4)ccnc3[nH]2)cn1 [Compound 37],≤ 10 nM,≤ 100 nM
O=C(OC1COC1)N1CCN(c2ccnc3[nH]c(-c4cscn4)cc23)CC1 [Compound 112],≤ 10 nM,≤ 100 nM
Cc1nc(-c2cc3c(N4CCN(C(=O)OC5COC5)CC4)ccnc3[nH]2)co1 [Compound 102],≤ 10 nM,100 to 500 nM
CCOC(=O)N1CCN(c2ccnc3[nH]c(-c4cnn(C)c4)c(C#N)c23)CC1 [Compound 68],≤ 10 nM,≤ 100 nM
Cn1cc(-c2cc3c(N4CCN(C(=O)O[C@H]5C[C@@H](F)C5)CC4)ccnc3[nH]2)cn1 [Compound 161],≤ 10 nM,≤ 100 nM
O=C(OC1COC1)N1CCN(c2ccnc3[nH]c(-c4ccc(C5(O)CCCC5)cc4)cc23)CC1 [Compound 427],≤ 10 nM,≤ 100 nM
Cn1cc(-c2[nH]c3nccc(N4CCN(C(=O)OC5COC5)CC4)c3c2Br)cn1 [Compound 426],≤ 10 nM,100 to 500 nM
CCOC(=O)N1CCN(c2ccnc3[nH]c(-c4cnn(C)c4)c(Cl)c23)CC1 [Compound 121],≤ 10 nM,≤ 100 nM
CN1CCN(C(=O)COc2ccc(-c3cc4c(N5CCN(C(=O)C6CC6)CC5)ccnc4[nH]3)cc2)CC1 [Compound 464],≤ 10 nM,100 to 500 nM
CCCC(C)C(=O)N1CCN(c2ccnc3[nH]c(-c4cnn(C)c4)cc23)CC1 (centres unmarked) [Compound 82],≤ 10 nM,> 500 nM
CC(=O)N1CCc2sc(-c3[nH]c4nccc(N5CCN(C(=O)OC6COC6)CC5)c4c3C#N)nc2C1 [Compound 470],≤ 10 nM,≤ 100 nM
Cc1c(-c2cc3c(N4CCN(C(=O)[C@H]5CC[C@H](C#N)CC5)CC4)ccnc3[nH]2)cnn1C(C)C [Compound 423],≤ 10 nM,≤ 100 nM

Structure (SMILES),IC50 [1],IC50 (human ALK2 R206H)
CCOC(=O)N1CCN(c2ccnc3[nH]c(-c4ccccn4)c(Cl)c23)CC1 [Compound 115],≤ 10 nM,≤ 100 nM
CCOC(=O)N1CCN(c2ccnc3[nH]c(-c4cnn(C(F)F)c4)cc23)CC1 [Compound 125],≤ 10 nM,≤ 100 nM
CS(=O)(=O)c1ccc(-c2cc3c(N4CCN(C(=O)C5CC5)CC4)ccnc3[nH]2)cc1 [Compound 307],≤ 10 nM,100 to 500 nM
O=C(OC1COC1)N1CCN(c2ccnc3[nH]c(-c4cn([C@H]5CCOC5)cn4)cc23)CC1 [Compound 359],≤ 10 nM,≤ 100 nM
Cn1cnc(-c2cc3c(N4CCN(C(=O)OCC(F)F)CC4)ccnc3[nH]2)c1 [Compound 124],≤ 10 nM,≤ 100 nM
O=C(O[C@H]1C[C@H](F)C1)N1CCN(c2ccnc3[nH]c(-c4ccc(C5(O)CCOCC5)cn4)cc23)CC1 [Compound 462],≤ 10 nM,≤ 100 nM
O=C(C1CC1)N1CCN(c2ccnc3[nH]c(-c4ccc(C5CCNCC5(F)F)cc4)cc23)CC1 (centres unmarked) [Compound 431],≤ 10 nM,≤ 100 nM
O=C(C1CC1)N1CCN(c2ccnc3[nH]c(-c4ccc(C5(O)CCC5)cc4)cc23)CC1 [Compound 272],≤ 10 nM,≤ 100 nM
CCOC(=O)N1CCN(c2ccnc3[nH]c(-c4cnn(CC(C)C#N)c4)cc23)CC1 (centres unmarked) [Compound 214],≤ 10 nM,100 to 500 nM
Cn1cc(-c2cc3c(N4CCN(C(=O)O[C@@H]5CCC5(F)F)CC4)ccnc3[nH]2)cn1 [Compound 263],≤ 10 nM,≤ 100 nM
Cn1cc(-c2cc3c(N4CCN(C(=O)O[C@H]5CCOC5)CC4)ccnc3[nH]2)cn1 [Compound 150],≤ 10 nM,100 to 500 nM
CC(C)N1CCC(C)(c2ccc(-c3cc4c(N5CCN(C(=O)OC6COC6)CC5)ccnc4[nH]3)cc2)CC1 [Compound 473],≤ 10 nM,≤ 100 nM
Cc1nc(-c2cc3c(N4CCN(C(=O)OC5CCC5)CC4)ccnc3[nH]2)cs1 [Compound 159],≤ 10 nM,≤ 100 nM
COC1(c2ccc(-c3cc4c(N5CCN(C(=O)OC6COC6)CC5)ccnc4[nH]3)c(C#N)c2)CCOCC1 [Compound 472],≤ 10 nM,≤ 100 nM
O=C(C1CC1)N1CCN(c2ccnc3[nH]c(-c4ccc(C5(O)CCCC5)cc4)cc23)CC1 [Compound 329],≤ 10 nM,≤ 100 nM
Cn1cc(-c2[nH]c3nccc(N4CCN(C(=O)[C@H]5CC[C@H](C#N)CC5)CC4)c3c2Cl)cn1 [Compound 397],≤ 10 nM,≤ 100 nM
CC(C)N1CCC[C@H](c2ccc(-c3cc4c(N5CCN(C(=O)OC6COC6)CC5)ccnc4[nH]3)cc2)C1 [Compound 468],≤ 10 nM,≤ 100 nM
O=C(C1CC1)N1CCN(c2ccnc3[nH]c(-c4ccc(C5CCCOC5)cc4)cc23)CC1 (centres unmarked) [Compound 328],≤ 10 nM,≤ 100 nM
Cn1cc(-c2cc3c(N4CCN(C(=O)OC5CCC5)CC4)ccnc3[nH]2)cn1 [Compound 77],≤ 10 nM,≤ 100 nM
Cn1ncc(-c2cc3c(N4CCN(C(=O)OC5COC5)CC4)ccnc3[nH]2)c1C#N [Compound 210],≤ 10 nM,100 to 500 nM
O=C(O[C@H]1C[C@H](F)C1)N1CCN(c2ccnc3[nH]c(-c4nc5c(s4)COCC5)cc23)CC1 [Compound 416],≤ 10 nM,≤ 100 nM
CC(C#N)Cn1cc(-c2cc3c(N4CCN(C(=O)OC5COC5)CC4)ccnc3[nH]2)cn1 (centres unmarked) [Compound 352],≤ 10 nM,100 to 500 nM
COC1CC(OC(=O)N2CCN(c3ccnc4[nH]c(-c5cnn(C)c5)cc34)CC2)C1 (centres unmarked) [Compound 233],≤ 10 nM,100 to 500 nM
